According to patent US20250235543A1, “MODIFIED PROTEINS AND PROTEIN DEGRADERS” (Cullgen (Shanghai), Inc., priority 2021, published 2025):
Like-named read-outs stand apart in the source and are kept apart here.

How the values were obtained:
CDK4 = molecular target: T1, CDK4 (Homo sapiens, UniProt P11802); test: CDK4 percentage degradation in Calu-1 cells (immunoblotting); format: cell-based; conditions: for inhibition at 0.2 µM: read-out: CDK4 Degradation (200 nM); for inhibition at 10 µM: read-out: CDK4 Degradation (10 μM)
T1 construct: endogenous in cells; host or cells: Calu-1
Procedure, shortened: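 Cultured cells were rinsed once in cold PBS and lysed in cold RIPA buffer containing protease and phosphatase inhibitors, with gentle agitation at 4° C. for 30 min. Lysates were centrifuged at 13,000 rpm for 10 min at 4° C., and protein was quantified by BCA. Samples were then separated by SDS-PAGE, detected with ECL, and the CDK4 bands quantified in Image Lab.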

cyclin D1 = test: Cyclin D1 percentage degradation in Calu-1 cells (immunoblotting); format: cell-based; conditions: 16 hours
Procedure, shortened: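 Cells were rinsed once in cold PBS and lysed in cold RIPA buffer containing protease and phosphatase inhibitors, with gentle agitation at 4° C. for 30 min. Lysates were spun at 13,000 rpm for 10 min at 4° C., protein was measured by BCA, and samples were boiled in Laemmli buffer at 99° C. for 5 min before SDS-PAGE immunoblotting.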

T1 sequence (P11802 2-303 limits assumed): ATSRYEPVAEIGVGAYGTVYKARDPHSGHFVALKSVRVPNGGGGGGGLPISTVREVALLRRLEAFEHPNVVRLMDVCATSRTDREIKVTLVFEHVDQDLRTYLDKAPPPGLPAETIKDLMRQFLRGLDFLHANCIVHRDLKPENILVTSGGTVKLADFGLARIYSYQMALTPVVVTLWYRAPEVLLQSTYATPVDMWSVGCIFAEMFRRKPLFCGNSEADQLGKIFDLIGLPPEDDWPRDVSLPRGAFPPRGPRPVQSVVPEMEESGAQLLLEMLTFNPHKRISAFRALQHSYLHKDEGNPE
T1 sequence (P24385 whole entry partner): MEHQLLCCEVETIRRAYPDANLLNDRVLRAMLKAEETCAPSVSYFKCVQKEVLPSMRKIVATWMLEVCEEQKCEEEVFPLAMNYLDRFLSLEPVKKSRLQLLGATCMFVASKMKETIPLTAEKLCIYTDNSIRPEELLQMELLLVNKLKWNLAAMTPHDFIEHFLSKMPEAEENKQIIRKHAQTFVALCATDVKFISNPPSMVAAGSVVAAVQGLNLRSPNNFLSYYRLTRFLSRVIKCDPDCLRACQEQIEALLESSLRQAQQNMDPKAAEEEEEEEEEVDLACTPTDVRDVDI
T1 sequence (Q16531 2-1140 limits assumed, further chain): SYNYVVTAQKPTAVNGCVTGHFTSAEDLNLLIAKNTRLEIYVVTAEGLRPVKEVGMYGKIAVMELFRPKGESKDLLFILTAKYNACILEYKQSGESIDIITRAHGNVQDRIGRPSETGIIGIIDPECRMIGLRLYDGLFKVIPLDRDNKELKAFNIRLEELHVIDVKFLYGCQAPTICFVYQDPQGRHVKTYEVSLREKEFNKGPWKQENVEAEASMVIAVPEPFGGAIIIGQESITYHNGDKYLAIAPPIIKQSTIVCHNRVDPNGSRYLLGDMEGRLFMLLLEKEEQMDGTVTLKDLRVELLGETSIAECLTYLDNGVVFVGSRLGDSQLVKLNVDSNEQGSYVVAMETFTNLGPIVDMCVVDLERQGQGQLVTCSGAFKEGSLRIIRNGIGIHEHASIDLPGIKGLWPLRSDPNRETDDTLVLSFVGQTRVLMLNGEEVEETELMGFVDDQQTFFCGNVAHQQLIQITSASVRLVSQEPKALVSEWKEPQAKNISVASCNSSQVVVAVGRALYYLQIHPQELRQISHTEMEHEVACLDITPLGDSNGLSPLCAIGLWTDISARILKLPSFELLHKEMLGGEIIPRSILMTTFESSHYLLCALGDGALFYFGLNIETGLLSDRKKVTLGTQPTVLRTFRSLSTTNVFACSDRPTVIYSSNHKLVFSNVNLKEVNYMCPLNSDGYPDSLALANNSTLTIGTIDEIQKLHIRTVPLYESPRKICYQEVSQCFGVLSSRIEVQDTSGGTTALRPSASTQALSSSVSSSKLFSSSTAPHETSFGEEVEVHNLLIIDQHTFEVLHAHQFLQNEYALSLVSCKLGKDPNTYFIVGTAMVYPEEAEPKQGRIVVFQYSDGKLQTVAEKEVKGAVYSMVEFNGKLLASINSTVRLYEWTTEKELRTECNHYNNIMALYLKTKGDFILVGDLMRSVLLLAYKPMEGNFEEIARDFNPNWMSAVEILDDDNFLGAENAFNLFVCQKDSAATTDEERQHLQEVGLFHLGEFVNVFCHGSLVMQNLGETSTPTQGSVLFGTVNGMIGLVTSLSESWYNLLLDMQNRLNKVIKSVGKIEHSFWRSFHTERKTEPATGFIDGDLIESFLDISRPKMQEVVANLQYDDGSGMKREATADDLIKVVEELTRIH

CC(=O)c1c(C)c2cnc(Nc3ccc(N4CCN(CC(=O)NCCCCCCCNc5ccc(C)c(C(=O)Nc6nc(C)c(C)s6)c5)CC4)cn3)nc2n(C2CCCC2)c1=O [CPD-117, 5-((7-(2-(4-(6-((6-Acetyl-8-cyclopentyl-5-methyl-7-oxo-7,8-dihydropyrido[2,3-d]pyrimidin-2-yl)amino)pyridin-3-yl)piperazin-1-yl)acetamido)heptyl)amino)-N-(4,5-dimethylthiazol-2-yl)-2-methylbenzamide]
inhibition at 0.2 µM (CDK4; Calu-1 cells, 200 nM, 16 hours): 30 to 50%
CyclinD1 Degradation (200 nM) (cyclin D1): C (protein percentage degradation <50%, and >=30%)

CC(=O)c1c(C)c2cnc(Nc3ccc(N4CCN(CC(=O)NCCOCCOCCC(=O)Nc5cc(N(C)C)ccc5C(=O)Nc5nc(C)c(C)s5)CC4)cn3)nc2n(C2CCCC2)c1=O [CPD-155, 2-(3-(2-(2-(2-(4-(6-((6-Acetyl-8-cyclopentyl-5-methyl-7-oxo-7,8-dihydropyrido[2,3-d]pyrimidin-2-yl)amino)pyridin-3-yl)piperazin-1-yl)acetamido)ethoxy)ethoxy)propanamido)-4-(dimethylamino)-N-(4,5-dimethylthiazol-2-yl)benzamide]
inhibition at 0.2 µM (CDK4; Calu-1 cells, 200 nM, 16 hours): 50 to 80%
CyclinD1 Degradation (200 nM) (cyclin D1): A (protein percentage degradation >=80%)

Cc1nc(NC(=O)c2ccccc2NC(=O)CCOCCOCCOCCOCCOCCNC(=O)CN2CCN(c3ccc(Nc4ncc5cc6n(c5n4)C4(CCCCC4)CNC6=O)nc3)CC2)sc1C [CPD-326, N-(4,5-Dimethylthiazol-2-yl)-2-(2-oxo-1-(4-(6-((6′-oxo-7′,8′-dihydro-6′H-spiro[cyclohexane-1,9′-pyrazino[1′,2′:1,5]pyrrolo[2,3-d]pyrimidin]-2′-yl)amino)pyridin-3-yl)piperazin-1-yl)-6,9,12,15,18-pentaoxa-3-azahenicosan-21-amido)benzamide]
inhibition at 10 µM (CDK4; Calu-1 cells, 16 hours): 50 to 80%
CyclinD1 Degradation (10 μM) (cyclin D1): A (protein percentage degradation >= 80%)

Cc1nc(NC(=O)c2ccccc2NC(=O)CCOCCOCCOCCNC(=O)CN2CCN(Cc3ccc(Nc4ncc(F)c(-c5cc(F)c6nc(C)n(C(C)C)c6c5)n4)nc3)CC2)sc1C [CPD-282, N-(4,5-Dimethylthiazol-2-yl)-2-(1-(4-((6-((5-fluoro-4-(4-fluoro-1-isopropyl-2-methyl-1H-benzo[d]imidazol-6-yl)pyrimidin-2-yl)amino)pyridin-3-yl)methyl)piperazin-1-yl)-2-oxo-6,9,12-trioxa-3-azapentadecan-15-amido)benzamide]
inhibition at 10 µM (CDK4; Calu-1 cells, 16 hours): < 30%
CyclinD1 Degradation (10 μM) (cyclin D1): D (protein percentage degradation < 30%)

CC(=O)c1c(C)c2cnc(Nc3ccc(N4CCN(CCCCCCCCCCNc5cccc(C(=O)Nc6nc(C)c(C)s6)c5C)CC4)cn3)nc2n(C2CCCC2)c1=O [CPD-078, 3-((10-(4-(6-((6-Acetyl-8-cyclopentyl-5-methyl-7-oxo-7,8-dihydropyrido[2,3-d]pyrimidin-2-yl)amino)pyridin-3-yl)piperazin-1-yl)decyl)amino)-N-(4,5-dimethylthiazol-2-yl)-2-methylbenzamide]
inhibition at 0.2 µM (CDK4; Calu-1, 16 h): < 30%
CyclinD1 Degradation (200 nM) (cyclin D1): D (protein percentage degradation <30%)

CC(=O)c1c(C)c2cnc(Nc3ccc(N4CCN(CC(=O)NCCCCCC(=O)Nc5ccccc5C(=O)Nc5nc(C)c(C)s5)CC4)cn3)nc2n(C2CCCC2)c1=O [CPD-172, 2-(6-(2-(4-(6-((6-Acetyl-8-cyclopentyl-5-methyl-7-oxo-7,8-dihydropyrido[2,3-d]pyrimidin-2-yl)amino)pyridin-3-yl)piperazin-1-yl)acetamido)hexanamido)-N-(4,5-dimethylthiazol-2-yl)benzamide]
inhibition at 0.2 µM (CDK4; Calu-1 cells, 200 nM, 16 hours): 30 to 50%
CyclinD1 Degradation (200 nM) (cyclin D1): D (protein percentage degradation <30%)

CC(=O)c1c(C)c2cnc(Nc3ccc(N4CCN(CC(=O)NCCCCCCC(=O)Nc5ccccc5C(=O)Nc5nc(C)c(C)s5)CC4)cn3)nc2n(C2CCCC2)c1=O [CPD-169, 2-(7-(2-(4-(6-((6-Acetyl-8-cyclopentyl-5-methyl-7-oxo-7,8-dihydropyrido[2,3-d]pyrimidin-2-yl)amino)pyridin-3-yl)piperazin-1-yl)acetamido)heptanamido)-N-(4,5-dimethylthiazol-2-yl)benzamide]
inhibition at 0.2 µM (CDK4; Calu-1 cells, 200 nM, 16 hours): < 30%
CyclinD1 Degradation (200 nM) (cyclin D1): D (protein percentage degradation <30%)

CC(=O)c1c(C)c2cnc(Nc3ccc(N4CCN(C(=O)CCOCCC(=O)Nc5ccccc5C(=O)Nc5nc(C)c(C)s5)CC4)cn3)nc2n(C2CCCC2)c1=O [CPD-181, 2-(3-(3-(4-(6-((6-Acetyl-8-cyclopentyl-5-methyl-7-oxo-7,8-dihydropyrido[2,3-d]pyrimidin-2-yl)amino)pyridin-3-yl)piperazin-1-yl)-3-oxopropoxy)propanamido)-N-(4,5-dimethylthiazol-2-yl)benzamide]
inhibition at 0.2 µM (CDK4; Calu-1, 16 h): < 30%
CyclinD1 Degradation (200 nM) (cyclin D1): D (protein percentage degradation <30%)

Cc1nc(NC(=O)c2ccccc2NC(=O)CCCCNC(=O)CN2CCN(c3ccc(Nc4ncc5cc(C(=O)N(C)C)n(C6CCCC6)c5n4)nc3)CC2)sc1C [CPD-289, 7-Cyclopentyl-2-((5-(4-(2-((5-((2-((4,5-dimethylthiazol-2-yl)carbamoyl)phenyl)amino)-5-oxopentyl)amino)-2-oxoethyl)piperazin-1-yl)pyridin-2-yl)amino)-N,N-dimethyl-7H-pyrrolo[2,3-d]pyrimidine-6-carboxamide]
inhibition at 10 µM (CDK4; Calu-1 cells, 16 hours): 30 to 50%
CyclinD1 Degradation (10 μM) (cyclin D1): A (protein percentage degradation >= 80%)

Cc1nc(NC(=O)c2ccccc2NC(=O)CCOCCOCCOCCNC(=O)CN2CCN(c3ccc(Nc4ncc(F)c(-c5cc(F)c6nc(C)n(C(C)C)c6c5)n4)nc3)CC2)sc1C [CPD-310, N-(4,5-Dimethylthiazol-2-yl)-2-(1-(4-(6-((5-fluoro-4-(4-fluoro-1-isopropyl-2-methyl-1H-benzo[d]imidazol-6-yl)pyrimidin-2-yl)amino)pyridin-3-yl)piperazin-1-yl)-2-oxo-6,9,12-trioxa-3-azapentadecan-15-amido)benzamide]
inhibition at 10 µM (CDK4; Calu-1 cells, 16 hours): < 30%
CyclinD1 Degradation (10 μM) (cyclin D1): A (protein percentage degradation >= 80%)

Cc1nc(NC(=O)c2ccccc2NC(=O)CCCCNC(=O)CN2CCN(c3ccc(Nc4ncc5cc6n(c5n4)C4(CCCCC4)CNC6=O)nc3)CC2)sc1C [CPD-317, N-(4,5-Dimethylthiazol-2-yl)-2-(5-(2-(4-(6-((6′-oxo-7′,8′-dihydro-6′H-spiro[cyclohexane-1,9′-pyrazino[1′,2′:1,5]pyrrolo[2,3-d]pyrimidin]-2′-yl)amino)pyridin-3-yl)piperazin-1-yl)acetamido)pentanamido)benzamide]
inhibition at 10 µM (CDK4; Calu-1 cells, 16 hours): 50 to 80%
CyclinD1 Degradation (10 μM) (cyclin D1): A (protein percentage degradation >= 80%)

CC(=O)c1c(C)c2cnc(Nc3ccc(N4CCN(CC(=O)NCCOCCOCCOCCOCCOCCC(=O)Nc5ccccc5C(=O)Nc5nc(C)c(C)s5)CC4)cn3)nc2n(C2CCCC2)c1=O [CPD-175, 2-(1-(4-(6-((6-Acetyl-8-cyclopentyl-5-methyl-7-oxo-7,8-dihydropyrido[2,3-d]pyrimidin-2-yl)amino)pyridin-3-yl)piperazin-1-yl)-2-oxo-6,9,12,15,18-pentaoxa-3-azahenicosan-21-amido)-N-(4,5-dimethylthiazol-2-yl)benzamide]
inhibition at 0.2 µM (CDK4; Calu-1, 16 h): > 80%
CyclinD1 Degradation (200 nM) (cyclin D1): A (protein percentage degradation >=80%)

CC(=O)c1c(C)c2cnc(Nc3ccc(N4CCN(CC(=O)NCCOCCOCCNC(=O)COc5ccc(C(=O)Nc6ncc(C)s6)c(C)c5)CC4)cn3)nc2n(C2CCCC2)c1=O [CPD-039, 4-((14-(4-(6-((6-Acetyl-8-cyclopentyl-5-methyl-7-oxo-7,8-dihydropyrido[2,3-d]pyrimidin-2-yl)amino)pyridin-3-yl)piperazin-1-yl)-2,13-dioxo-6,9-dioxa-3,12-diazatetradecyl)oxy)-2-methyl-N-(5-methylthiazol-2-yl)benzamide]
inhibition at 0.2 µM (CDK4; Calu-1 cells, 200 nM, 16 hours): < 30%
CyclinD1 Degradation (200 nM) (cyclin D1): D (protein percentage degradation <30%)

CC(=O)c1c(C)c2cnc(Nc3ccc(N4CCN(C(=O)CCOCCNc5cccc(C(=O)Nc6nc(C)c(C)s6)c5C)CC4)cn3)nc2n(C2CCCC2)c1=O [CPD-120, 3-((2-(3-(4-(6-((6-Acetyl-8-cyclopentyl-5-methyl-7-oxo-7,8-dihydropyrido[2,3-d]pyrimidin-2-yl)amino)pyridin-3-yl)piperazin-1-yl)-3-oxopropoxy)ethyl)amino)-N-(4,5-dimethylthiazol-2-yl)-2-methylbenzamide]
inhibition at 0.2 µM (CDK4; Calu-1, 16 h): < 30%
CyclinD1 Degradation (200 nM) (cyclin D1): D (protein percentage degradation <30%)

CC(=O)c1c(C)c2cnc(Nc3ccc(N4CCN(C(=O)CCCCCCNc5ccc(C)c(C(=O)Nc6nc(C)c(C)s6)c5)CC4)cn3)nc2n(C2CCCC2)c1=O [CPD-109, 5-((7-(4-(6-((6-Acetyl-8-cyclopentyl-5-methyl-7-oxo-7,8-dihydropyrido[2,3-d]pyrimidin-2-yl)amino)pyridin-3-yl)piperazin-1-yl)-7-oxoheptyl)amino)-N-(4,5-dimethylthiazol-2-yl)-2-methylbenzamide]
inhibition at 0.2 µM (CDK4; Calu-1 cells, 200 nM, 16 hours): < 30%
CyclinD1 Degradation (200 nM) (cyclin D1): D (protein percentage degradation <30%)

CC(=O)c1c(C)c2cnc(Nc3ccc(N4CCN(CC(=O)NC(C)CCCCNc5cc(Cl)ccc5C(=O)Nc5ccc(C)c(C6CC6)n5)CC4)cn3)nc2n(C2CCCC2)c1=O (centres unmarked) [CPD-379, 2-((5-(2-(4-(6-((6-Acetyl-8-cyclopentyl-5-methyl-7-oxo-7,8-dihydropyrido[2,3-d]pyrimidin-2-yl)amino)pyridin-3-yl)piperazin-1-yl)acetamido)hexyl)amino)-4-chloro-N-(6-cyclopropyl-5-methylpyridin-2-yl)benzamide]
inhibition at 0.2 µM (CDK4; Calu-1 cells, 200 nM, 16 hours): 50 to 80%
CyclinD1 Degradation (200 nM) (cyclin D1): A (protein percentage degradation >=80%)
